From ChEMBL document CHEMBL1151745, “Identification of potent, selective, and metabolically stable peptide antagonists to the calcitonin gene-related peptide (CGRP) receptor” (J Med Chem, 2008)
Activity calls are given as the source filed them. No cut-off for these calls is given here. Where a SMILES comes first, the peptide text is derived from it. [ ]: non-standard residue; d: D form. Tpi = O=C(O)[C@@H]1Cc2c([nH]c3ccccc23)CN1; Igl = N[C@H](C(=O)O)C1Cc2ccccc2C1; hArg = N=C(N)NCCCC[C@H](N)C(=O)O; Cit = NC(=O)NCCC[C@H](N)C(=O)O

Biological target: Calcitonin gene-related peptide type 1 receptor (Homo sapiens) (UniProt Q16602)
Assay: Agonist activity at human CGRP1 receptor in human SK-N-MC cells

Sequence of Calcitonin gene-related peptide type 1 receptor (Homo sapiens) (Q16602 whole entry, looked up): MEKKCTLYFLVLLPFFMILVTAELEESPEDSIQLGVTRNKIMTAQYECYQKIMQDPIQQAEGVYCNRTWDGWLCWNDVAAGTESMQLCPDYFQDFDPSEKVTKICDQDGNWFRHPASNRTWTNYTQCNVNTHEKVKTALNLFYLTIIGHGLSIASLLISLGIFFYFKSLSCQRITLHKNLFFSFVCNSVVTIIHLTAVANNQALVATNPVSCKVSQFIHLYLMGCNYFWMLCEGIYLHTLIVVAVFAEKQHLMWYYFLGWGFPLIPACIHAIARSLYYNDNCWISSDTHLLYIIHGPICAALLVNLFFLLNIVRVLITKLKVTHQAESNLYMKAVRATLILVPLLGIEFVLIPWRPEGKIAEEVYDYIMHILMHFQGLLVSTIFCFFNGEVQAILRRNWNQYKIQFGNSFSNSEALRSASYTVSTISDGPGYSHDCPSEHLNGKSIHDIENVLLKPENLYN

Activity, inactive:
CC(=O)N[C@@H](Cc1c[nH]c2ccccc12)C(=O)N[C@H](C(=O)N[C@H](C(=O)N[C@@H](Cc1cnc[nH]1)C(=O)N[C@@H](CCCNC(N)=O)C(=O)N[C@@H](CC(C)C)C(=O)N[C@@H](C)C(=O)NCC(=O)N[C@@H](CC(C)C)C(=O)N[C@@H](CC(C)C)C(=O)N[C@@H](CO)C(=O)N[C@@H](CCCNC(N)=O)C(=O)N[C@@H](CO)C(=O)NCC(=O)NCC(=O)N[C@H](C(=O)N[C@H](C(=O)N[C@@H](CCCCNC(=N)N)C(=O)N[C@@H](CCCCN)C(=O)N[C@@H](CC(N)=O)C(=O)N[C@@H](Cc1ccccc1)C(=O)N[C@H](C(=O)N1CCC[C@H]1C(=O)N[C@H](C(=O)N[C@@H](CC(=O)O)C(=O)N[C@H](C(=O)NCC(=O)N1CCC[C@H]1C(=O)N[C@H](C(=O)N[C@@H](C)C(=O)N[C@@H](Cc1ccccc1)C(N)=O)C1Cc2ccccc2C1)C(C)C)[C@@H](C)O)C(C)C)C(C)C)C(C)C)[C@@H](C)O)C(C)C (Ac-WVTH[Cit]LAGLLS[Cit]SGGVV[hArg]KNFVPTDVGP[Igl]AF-NH2)
CC(=O)N[C@@H](Cc1c[nH]c2ccccc12)C(=O)N[C@H](C(=O)N[C@H](C(=O)N[C@@H](Cc1cnc[nH]1)C(=O)N[C@@H](CCCNC(N)=O)C(=O)N[C@@H](CC(C)C)C(=O)N[C@@H](C)C(=O)NCC(=O)N[C@@H](CC(C)C)C(=O)N[C@@H](CC(C)C)C(=O)N[C@@H](CO)C(=O)N[C@@H](CCCNC(N)=O)C(=O)N[C@@H](CO)C(=O)NCC(=O)NCC(=O)N[C@H](C(=O)N[C@H](C(=O)N[C@@H](CCCNC(=N)N)C(=O)N[C@@H](CCCCN)C(=O)N[C@@H](CC(N)=O)C(=O)N[C@@H](Cc1ccccc1)C(=O)N[C@H](C(=O)N1CCC[C@H]1C(=O)N[C@H](C(=O)N[C@@H](CC(=O)O)C(=O)N[C@H](C(=O)NCC(=O)N1C2CCCCC2C[C@H]1C(=O)N[C@@H](Cc1ccccc1)C(=O)N[C@@H](C)C(=O)N[C@@H](Cc1ccccc1)C(N)=O)C(C)C)[C@@H](C)O)C(C)C)C(C)C)C(C)C)[C@@H](C)O)C(C)C (stereo not given in full)
CC(=O)N[C@@H](Cc1c[nH]c2ccccc12)C(=O)N[C@H](C(=O)N[C@H](C(=O)N[C@@H](Cc1cnc[nH]1)C(=O)N[C@@H](CCCNC(N)=O)C(=O)N[C@@H](CC(C)C)C(=O)N[C@@H](C)C(=O)NCC(=O)N[C@@H](CC(C)C)C(=O)N[C@@H](CC(C)C)C(=O)N[C@@H](CO)C(=O)N[C@@H](CCCNC(N)=O)C(=O)N[C@@H](CO)C(=O)NCC(=O)NCC(=O)N[C@H](C(=O)N[C@H](C(=O)N[C@@H](CCCCNC(=N)N)C(=O)N[C@@H](CCCCN)C(=O)N[C@@H](CC(N)=O)C(=O)N[C@@H](Cc1ccccc1)C(=O)N[C@H](C(=O)N1CCC[C@H]1C(=O)N[C@H](C(=O)N[C@@H](CC(=O)O)C(=O)N[C@H](C(=O)NCC(=O)N1CCC[C@@H]1C(=O)N[C@@H](Cc1ccccc1)C(=O)N[C@@H](C)C(=O)N[C@@H](Cc1ccccc1)C(N)=O)C(C)C)[C@@H](C)O)C(C)C)C(C)C)C(C)C)[C@@H](C)O)C(C)C
CC(=O)N[C@@H](Cc1c[nH]c2ccccc12)C(=O)N[C@H](C(=O)N[C@H](C(=O)N[C@@H](Cc1cnc[nH]1)C(=O)N[C@@H](CCCNC(N)=O)C(=O)N[C@@H](CC(C)C)C(=O)N[C@@H](C)C(=O)NCC(=O)N[C@@H](CC(C)C)C(=O)N[C@@H](CC(C)C)C(=O)N[C@@H](CO)C(=O)N[C@@H](CCCNC(N)=O)C(=O)N[C@@H](CO)C(=O)NCC(=O)NCC(=O)N[C@H](C(=O)N[C@H](C(=O)N[C@@H](CCCCNC(=N)N)C(=O)N[C@@H](CCCCN)C(=O)N[C@@H](CC(N)=O)C(=O)N[C@@H](Cc1ccccc1)C(=O)N[C@H](C(=O)N1CCC[C@H]1C(=O)N[C@H](C(=O)N[C@@H](CC(=O)O)C(=O)N[C@H](C(=O)NCC(=O)N1Cc2[nH]c3ccccc3c2C[C@H]1C(=O)N[C@@H](Cc1ccccc1)C(=O)N[C@@H](C)C(=O)N[C@@H](Cc1ccccc1)C(N)=O)C(C)C)[C@@H](C)O)C(C)C)C(C)C)C(C)C)[C@@H](C)O)C(C)C
CC(=O)N[C@@H](Cc1c[nH]c2ccccc12)C(=O)N[C@H](C(=O)N[C@H](C(=O)N[C@@H](Cc1cnc[nH]1)C(=O)N[C@@H](CCCNC(N)=O)C(=O)N[C@@H](CC(C)C)C(=O)N[C@@H](C)C(=O)NCC(=O)N[C@@H](CC(C)C)C(=O)N[C@@H](CC(C)C)C(=O)N[C@@H](CO)C(=O)N[C@@H](CCCNC(N)=O)C(=O)N[C@@H](CO)C(=O)NCC(=O)NCC(=O)N[C@H](C(=O)N[C@H](C(=O)N[C@@H](CCCCNC(=N)N)C(=O)N[C@@H](CCCCN)C(=O)N[C@@H](CC(N)=O)C(=O)N[C@@H](Cc1ccccc1)C(=O)N[C@H](C(=O)N1C(C(=O)N[C@H](C(=O)N[C@@H](CC(=O)O)C(=O)N[C@H](C(=O)NCC(=O)N2C3CCCCC3C[C@H]2C(=O)N[C@@H](Cc2ccccc2)C(=O)N[C@@H](C)C(=O)N[C@@H](Cc2ccccc2)C(N)=O)C(C)C)[C@@H](C)O)CC2CCCCC21)C(C)C)C(C)C)C(C)C)[C@@H](C)O)C(C)C (stereo not given in full)
CC(=O)N[C@@H](Cc1c[nH]c2ccccc12)C(=O)N[C@H](C(=O)N[C@H](C(=O)N[C@@H](Cc1cnc[nH]1)C(=O)N[C@@H](CCCNC(N)=O)C(=O)N[C@@H](CC(C)C)C(=O)N[C@@H](C)C(=O)NCC(=O)N[C@@H](CC(C)C)C(=O)N[C@@H](CC(C)C)C(=O)N[C@@H](CO)C(=O)N[C@@H](CCCNC(N)=O)C(=O)N[C@@H](CO)C(=O)NCC(=O)NCC(=O)N[C@H](C(=O)N[C@H](C(=O)N[C@@H](CCCCNC(=N)N)C(=O)N[C@@H](CCCCN)C(=O)N[C@@H](CC(N)=O)C(=O)N[C@@H](Cc1ccccc1)C(=O)N[C@H](C(=O)N1CCC[C@H]1C(=O)N[C@H](C(=O)N[C@@H](CC(=O)O)C(=O)N[C@H](C(=O)NCC(=O)N1CCC[C@H]1CC(=O)N[C@@H](Cc1ccccc1)C(=O)N[C@@H](C)C(=O)N[C@@H](Cc1ccccc1)C(N)=O)C(C)C)[C@@H](C)O)C(C)C)C(C)C)C(C)C)[C@@H](C)O)C(C)C
CC(=O)N[C@@H](Cc1c[nH]c2ccccc12)C(=O)N[C@H](C(=O)N[C@H](C(=O)N[C@@H](Cc1cnc[nH]1)C(=O)N[C@@H](CCCNC(N)=O)C(=O)N[C@@H](CC(C)C)C(=O)N[C@@H](C)C(=O)NCC(=O)N[C@@H](CC(C)C)C(=O)N[C@@H](CC(C)C)C(=O)N[C@@H](CO)C(=O)N[C@@H](CCCNC(N)=O)C(=O)N[C@@H](CO)C(=O)NCC(=O)NCC(=O)N[C@H](C(=O)N[C@H](C(=O)N[C@@H](CCCCNC(=N)N)C(=O)N[C@@H](CCCCN)C(=O)N[C@@H](CC(N)=O)C(=O)N[C@@H](Cc1ccccc1)C(=O)N[C@H](C(=O)N1CCC[C@H]1C(=O)N[C@H](C(=O)N[C@@H](CC(=O)O)C(=O)N[C@H](C(=O)NCC(=O)N1CCC[C@H]1C(=O)N1Cc2[nH]c3ccccc3c2C[C@H]1C(=O)N[C@@H](C)C(=O)N[C@@H](Cc1ccccc1)C(N)=O)C(C)C)[C@@H](C)O)C(C)C)C(C)C)C(C)C)[C@@H](C)O)C(C)C (Ac-WVTH[Cit]LAGLLS[Cit]SGGVV[hArg]KNFVPTDVGP[Tpi]AF-NH2)
CC(=O)N[C@@H](Cc1c[nH]c2ccccc12)C(=O)N[C@H](C(=O)N[C@H](C(=O)N[C@@H](Cc1cnc[nH]1)C(=O)N[C@@H](CCCNC(N)=O)C(=O)N[C@@H](CC(C)C)C(=O)N[C@@H](C)C(=O)NCC(=O)N[C@@H](CC(C)C)C(=O)N[C@@H](CC(C)C)C(=O)N[C@@H](CO)C(=O)N[C@@H](CCCNC(N)=O)C(=O)N[C@@H](CO)C(=O)NCC(=O)NCC(=O)N[C@H](C(=O)N[C@H](C(=O)N[C@@H](CCCCNC(=N)N)C(=O)N[C@@H](CCCCN)C(=O)N[C@@H](CC(N)=O)C(=O)N[C@@H](Cc1ccccc1)C(=O)N[C@H](C(=O)N1CCC[C@H]1C(=O)N[C@H](C(=O)N[C@@H](CC(=O)O)C(=O)N[C@H](C(=O)NCC(=O)NC(C)(C)C(=O)N[C@@H](Cc1ccccc1)C(=O)N[C@@H](C)C(=O)N[C@@H](Cc1ccccc1)C(N)=O)C(C)C)[C@@H](C)O)C(C)C)C(C)C)C(C)C)[C@@H](C)O)C(C)C
CC(=O)N[C@H](C(=O)N[C@H](C(=O)N[C@@H](Cc1cnc[nH]1)C(=O)N[C@@H](CCCNC(=N)N)C(=O)N[C@@H](CC(C)C)C(=O)N[C@@H](C)C(=O)NCC(=O)N[C@@H](CC(C)C)C(=O)N[C@@H](CC(C)C)C(=O)N[C@@H](CO)C(=O)N[C@@H](CCCNC(=N)N)C(=O)N[C@@H](CO)C(=O)NCC(=O)NCC(=O)N[C@H](C(=O)N[C@H](C(=O)N[C@@H](CCCNC(=N)N)C(=O)N[C@@H](CCCCN)C(=O)N[C@@H](CC(N)=O)C(=O)N[C@@H](Cc1ccccc1)C(=O)N[C@H](C(=O)N1CCC[C@H]1C(=O)N[C@H](C(=O)N[C@@H](CC(=O)O)C(=O)N[C@H](C(=O)NCC(=O)N1CCC[C@H]1C(=O)N[C@@H](Cc1ccccc1)C(=O)N[C@@H](C)C(=O)N[C@@H](Cc1ccccc1)C(N)=O)C(C)C)[C@@H](C)O)C(C)C)C(C)C)C(C)C)[C@@H](C)O)C(C)C (Ac-VTHRLAGLLSRSGGVVRKNFVPTDVGPFAF-NH2)
CC(=O)N[C@@H](Cc1c[nH]c2ccccc12)C(=O)N[C@H](C(=O)N[C@H](C(=O)N[C@@H](Cc1cnc[nH]1)C(=O)N[C@@H](CCCNC(=N)N)C(=O)N[C@@H](CC(C)C)C(=O)N[C@@H](C)C(=O)NCC(=O)N[C@@H](CC(C)C)C(=O)N[C@@H](CC(C)C)C(=O)N[C@@H](CO)C(=O)N[C@@H](CCCNC(N)=O)C(=O)N[C@@H](CO)C(=O)NCC(=O)NCC(=O)N[C@H](C(=O)N[C@H](C(=O)N[C@@H](CCCNC(=N)N)C(=O)N[C@@H](CCCCN)C(=O)N[C@@H](CC(N)=O)C(=O)N[C@@H](Cc1ccccc1)C(=O)N[C@H](C(=O)N1CCC[C@H]1C(=O)N[C@H](C(=O)N[C@@H](CC(=O)O)C(=O)N[C@H](C(=O)NCC(=O)N1CCC[C@H]1C(=O)N[C@@H](Cc1ccccc1)C(=O)N[C@@H](C)C(=O)N[C@@H](Cc1ccccc1)C(N)=O)C(C)C)[C@@H](C)O)C(C)C)C(C)C)C(C)C)[C@@H](C)O)C(C)C
